SMILES strings stand for the structures. Active and inactive are the calls of the source. The calls are words filed in the database; no cut-off is given here.

One may read the inhibition as the percentage by which the read-out fell short of the control.

Test [1] concerns THP-1. The experiment in a line: (§1) Antiinflammatory activity in human THP1 cells assessed as inhibition of PMA-induced TNFalpha secretion at 10 uM preincubated for 2 hrs followed by PMA addition measured after 48 hrs by ELISA. In kind it is functional. (In general: ELISA stands for enzyme-linked immunosorbent assay.)
Test [2] is described as follows: Antiinflammatory activity in human THP1 cells assessed as inhibition of PMA-induced IL-1beta secretion at 10 uM preincubated for 2 hrs followed by PMA addition measured after 48 hrs by ELISA. The format is functional. The conditions noted are these: THP-1.
Test [3] in a line: (§2) Antiinflammatory activity in human THP1 cells assessed as inhibition of PMA-induced MCP-1 secretion at 10 uM preincubated for 2 hrs followed by PMA addition measured after 48 hrs by ELISA. In kind it is functional. The note with it: THP-1.
Test [4] in a line: Cytotoxicity against human THP1 cells assessed as cell viability at 20 uM after 48 hrs by tryphan blue dye exclusion assay relative to control. The conditions noted are these: THP-1, 48 h, read-out: Activity. The format is functional.
The nature of test [5]: as §1. In kind it is functional. The note with it: THP-1.
The subject of test [6] is THP-1. The experiment in a line: Antiinflammatory activity in human THP1 cells assessed as inhibition of PMA-induced MCP-1 secretion preincubated for 2 hrs followed by PMA addition measured after 48 hrs by ELISA. The format is functional, cell-based.
In test [7] the test system is THP-1. The experiment in a line: Antiinflammatory activity in human THP1 cells assessed as inhibition of PMA-induced COX2 mRNA level preincubated for 2 hrs followed by PMA addition measured after 48 hrs by RT-PCR analysis. The format is functional, cell-based.
For test [8], the system named is THP-1. As to the kind of experiment: Antiinflammatory activity in human THP1 cells assessed as inhibition of PMA-induced TNFalpha secretion preincubated for 2 hrs followed by PMA addition measured after 48 hrs by ELISA. In kind it is functional, cell-based.
Test [9] concerns THP-1. As to the kind of experiment: Inhibition of PMA-induced monocyte to macrophage differentiation in human THP1 cells assessed as reduction in cell adherence at 20 uM preincubated for 2 hrs followed by PMA addition measured after 48 hrs by phase contrast microscopic analysis. The format is functional, cell-based.
Test [10] concerns THP-1. As to the kind of experiment: Antiinflammatory activity in human THP1 cells assessed as inhibition of PMA-induced IL-1beta secretion preincubated for 2 hrs followed by PMA addition measured after 48 hrs by ELISA. In kind it is functional, cell-based.
Test [11] relates to THP-1. Described as §2. In kind it is functional.

As for `CN1C(C(=O)/C=C/c2cn(-c3ccc(C(F)(F)F)cc3)nn2)=C(O)c2ccccc2S1(=O)=O`, the inhibition entry in the test with THP-1 [1] was “inactive”. For the same compound, the inhibition at 10 µM in test [2] worked out at 17.7%; in [3] it was 12.7%. Besides, the viability at 20 µM in [4] was 96.6%.
Regarding `CN1C(C(=O)/C=C/c2cn(-c3ccccc3)nn2)=C(O)c2ccccc2S1(=O)=O`, the inhibition at 10 µM was 24% in test [5], 56.9% in test [2] and 31.9% in test [3]. Also, the viability at 20 µM in test [4] stood at 94.2%.
As to `CN1C(C(=O)/C=C/c2cn(CC(=O)Nc3ccccc3)nn2)=C(O)c2ccccc2S1(=O)=O`, the inhibition at 10 µM in [5] was 33.3%; in [2], 49.3%; in test [3], 76.7%. Besides, the viability at 20 µM in test [4] was 96.2%.
With `CN1C(C(=O)/C=C/c2cn(CC(=O)Nc3ccc(F)cc3Br)nn2)=C(O)c2ccccc2S1(=O)=O`, the inhibition at 10 µM was determined as 59.8% in test [5], 63.8% in [2] and 65.4% in [3]. For the same compound, the viability at 20 µM in test [4] came to 93.6%.
`CN1C(C(=O)/C=C/c2cn(CC(=O)Nc3ccc(Cl)c(C(F)(F)F)c3)nn2)=C(O)c2ccccc2S1(=O)=O`: the inhibition at 10 µM was determined as 93.2% in test [5], 93.6% in test [2] and 88.4% in [3]. Further, the inhibition result in the test with THP-1 [6], in the test on THP-1 [8] and in the test with THP-1 [10] was “Dose-dependent effect” in each case. Further, the inhibition result in the test with THP-1 [7] was “Active”. Also, the inhibition entry with THP-1 [9] was “inactive”. The viability at 20 µM in test [4] amounted to 94.3%.
With `CN1C(C(=O)/C=C/c2cn(CC(=O)Nc3c(F)cccc3F)nn2)=C(O)c2ccccc2S1(=O)=O`, the inhibition at 10 µM in test [5] worked out at 31.3%; in test [2], 46.3%; in test [3], 41.3%. The viability at 20 µM in [4] was 95.6%.
With `CN1C(C(=O)/C=C/c2cn(-c3cccc([N+](=O)[O-])c3)nn2)=C(O)c2ccccc2S1(=O)=O`, in the test with THP-1 [1], the inhibition result is “inactive”. The inhibition at 10 µM in test [2] stood at 25.6%; in test [3] it was 30.7%. The viability at 20 µM in test [4] stood at 92.6%.
In the case of `CCCCCCCCn1cc(/C=C/C(=O)C2=C(O)c3ccccc3S(=O)(=O)N2C)nn1`, the inhibition at 10 µM in [5] was found to be 2.9%; in test [2], 64.7%; in test [3], 40.9%. For the same compound, the viability at 20 µM in [4] turned out to be 92.3%.
In the same order, the values of `CN1C(C(=O)/C=C/c2cn(-c3cc([N+](=O)[O-])ccc3Cl)nn2)=C(O)c2ccccc2S1(=O)=O` are 52.5%, 61.8%, 67.1% and 94.3%.
Regarding `CN1C(C(=O)/C=C/c2cn(-c3ccccc3F)nn2)=C(O)c2ccccc2S1(=O)=O`, the inhibition result in the test on THP-1 [1] and in the test with THP-1 [11] was “inactive” throughout. Also, in [2], the inhibition at 10 µM was 40.2%. Also, the viability at 20 µM in test [4] is 96.1%.
For the compound `CN1C(C(=O)/C=C/c2cn(-c3ccc(F)cc3)nn2)=C(O)c2ccccc2S1(=O)=O`, in the test with THP-1 [1], the inhibition result was “inactive”. Further, the inhibition at 10 µM in test [2] is 43.9%; in [3] it was 58.9%. Besides, the viability at 20 µM in [4] was 95.3%.
For `CN1C(C(=O)/C=C/c2cn(CC(=O)Nc3ccc(F)cc3)nn2)=C(O)c2ccccc2S1(=O)=O`, the values for the inhibition at 10 µM in test [5], in test [2] and in [3] were 73.4%, 42.4% and 41.4%, respectively. In test [4], the viability at 20 µM came to 92.5%.
As for `CN1C(C(=O)/C=C/c2cn(CC(=O)Nc3cccc(F)c3)nn2)=C(O)c2ccccc2S1(=O)=O`, the inhibition at 10 µM in test [5] came to 70.7%; in test [2] it was 69.5%; in test [3] it was 48.2%. In addition, the inhibition result with THP-1 [6], in the test on THP-1 [8] and in the test on THP-1 [10] was “Dose-dependent effect” in each case. In addition, the inhibition result in the test on THP-1 [7] is “Active”. Further, the inhibition entry in the test with THP-1 [9] was “inactive”. Also, the viability at 20 µM in test [4] was 96.5%.
Regarding `CN1C(C(=O)Nc2ccccn2)=C(O)c2ccccc2S1(=O)=O` [PIROXICAM], the inhibition at 10 µM was found to be 25.8% in [5], 21.8% in [2] and 11.4% in test [3].
Turning to `CN1C(C(=O)/C=C/c2cn(-c3ccc(F)c(Cl)c3)nn2)=C(O)c2ccccc2S1(=O)=O`, the inhibition entry in the test with THP-1 [1] and in the test on THP-1 [11] was “inactive” in each case. Further, the inhibition at 10 µM in test [2] was found to be 16.3%. Further, the viability at 20 µM in test [4] was 94.3%.
Regarding `COc1ccc(NC(=O)Cn2cc(/C=C/C(=O)C3=C(O)c4ccccc4S(=O)(=O)N3C)nn2)cc1`, the inhibition at 10 µM in test [5] was determined as 62.9%; in test [2], 49.8%; in test [3], 64.8%. Besides, the viability at 20 µM in [4] stood at 94.5%.
For `CN1C(C(=O)/C=C/c2cn(-c3ccc(F)cc3F)nn2)=C(O)c2ccccc2S1(=O)=O` the same measures were 11.2%, 47.7%, 29.6% and 96.2%.
For the compound `CN1C(C(=O)/C=C/c2cn(-c3ccc([N+](=O)[O-])cc3)nn2)=C(O)c2ccccc2S1(=O)=O`, the inhibition entry with THP-1 [1] was “inactive”. Further, the inhibition at 10 µM in [2] turned out to be 36.5%; in test [3], 31.5%. Also, in test [4], the viability at 20 µM stood at 93%.
For `Cc1ccc(-n2cc(/C=C/C(=O)C3=C(O)c4ccccc4S(=O)(=O)N3C)nn2)cc1` the same measures were “inactive”, 50.2%, 45.2% and 94.3%.
As for `COc1cccc(-n2cc(/C=C/C(=O)C3=C(O)c4ccccc4S(=O)(=O)N3C)nn2)c1`, the inhibition entry in the test with THP-1 [1] and with THP-1 [11] was “inactive” each time. Also, the inhibition at 10 µM in test [2] stood at 42.6%. Also, the viability at 20 µM in test [4] was 94.2%.
`CN1C(C(=O)/C=C/c2cn(-c3ccccc3Br)nn2)=C(O)c2ccccc2S1(=O)=O`: the inhibition at 10 µM in test [5] amounted to 13.7%; in test [2] it was 45.9%; in [3], 16.2%. Besides, the viability at 20 µM in test [4] is 94.4%.
As for `CN1C(C(=O)/C=C/c2cn(CC(=O)Nc3ccc(C(F)(F)F)cc3)nn2)=C(O)c2ccccc2S1(=O)=O`, the inhibition at 10 µM amounted to 94.2% in [5], 91.1% in [2] and 81.1% in test [3]. For the same compound, the inhibition entry in the test with THP-1 [6], in the test on THP-1 [8] and in the test with THP-1 [10] was “Dose-dependent effect” in each case. Moreover, in the test with THP-1 [7], the inhibition entry is “Active”. Further, the inhibition result in the test on THP-1 [9] is “inactive”. For the same compound, the viability at 20 µM in [4] is 95.1%.
Take `Cc1ccc(-c2cc(C(F)(F)F)nn2-c2ccc(S(N)(=O)=O)cc2)cc1` [CELECOXIB]: the inhibition at 10 µM was 37.4% in [5], 31.1% in test [2] and 20.1% in test [3].
For `CN1C(C(=O)/C=C/c2cn(-c3cccc(Cl)c3)nn2)=C(O)c2ccccc2S1(=O)=O`, the inhibition result in the test with THP-1 [1] is “inactive”. Also, the results for the inhibition at 10 µM in test [2] and in test [3] were 37.3% and 5.4%, respectively. For the same compound, in test [4], the viability at 20 µM was determined as 96%.
Turning to `CN1C(C(=O)/C=C/c2cn(-c3cccc(C(F)(F)F)c3)nn2)=C(O)c2ccccc2S1(=O)=O`, the inhibition result in the test with THP-1 [1] and in the test on THP-1 [11] was “inactive” throughout. Also, the inhibition at 10 µM in [2] turned out to be 23.9%. For the same compound, the viability at 20 µM in test [4] came to 93.8%.
Take `COc1ccc(-n2cc(/C=C/C(=O)C3=C(O)c4ccccc4S(=O)(=O)N3C)nn2)cc1`: the inhibition result in the test on THP-1 [1] was “inactive”. The inhibition at 10 µM was 53.9% in test [2] and 58.9% in test [3]. For the same compound, the viability at 20 µM in [4] worked out at 94.4%.
Consider `CN1C(C(=O)/C=C/c2cn(CC(=O)NC3CCCCC3)nn2)=C(O)c2ccccc2S1(=O)=O`, for which the results for the inhibition at 10 µM in test [5], in [2] and in [3] were 39.7%, 47.7% and 56.1%, respectively. In test [4], the viability at 20 µM stood at 95.2%.
